# Results as given in PubChem BioAssay (NCI).
#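 Each compound was tested at five concentrations against cells in 96-well plates for 48 hours. Here, GI50 denotes the concentration required for 50% inhibition of growth. TGI marks complete inhibition of growth.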
# Key:
# Test in all cases: NCI tumour cell line growth inhibition, 48 h
# 786-0 renal = test system: 786-0 renal
# A498 renal = test system: A498 renal
# A549 NSCLC = test system: A549 NSCLC
# ACHN renal = test system: ACHN renal
# BT-549 breast = test system: BT-549 breast
# CAKI-1 renal = test system: CAKI-1 renal
# CCRF-CEM leukemia = test system: CCRF-CEM leukemia
# COLO 205 colon = test system: COLO 205 colon
# DU-145 prostate = test system: DU-145 prostate
# EKVX NSCLC = test system: EKVX NSCLC
# HCC-2998 colon = test system: HCC-2998 colon
# HCT-116 colon = test system: HCT-116 colon
# HCT-15 colon = test system: HCT-15 colon
# HL-60(TB) leukemia = test system: HL-60(TB) leukemia
# HOP-62 NSCLC = test system: HOP-62 NSCLC
# HOP-92 NSCLC = test system: HOP-92 NSCLC
# HS 578T breast = test system: HS 578T breast
# HT29 colon = test system: HT29 colon
# IGROV1 ovarian = test system: IGROV1 ovarian
# K-562 leukemia = test system: K-562 leukemia
# KM12 colon = test system: KM12 colon
# LOX IMVI melanoma = test system: LOX IMVI melanoma
# M14 melanoma = test system: M14 melanoma
# MALME-3M melanoma = test system: MALME-3M melanoma
# MCF7 breast = test system: MCF7 breast
# MDA-MB-231 breast = test system: MDA-MB-231 breast
# MDA-MB-435 = test system: MDA-MB-435
# MOLT-4 leukemia = test system: MOLT-4 leukemia
# NCI-H226 lung = test system: NCI-H226 lung
smiles,measurement,setting,value
O=C(CCCCCCNC(=O)C(O)(O)C(F)(F)F)Nc1ncc(-c2ccccc2)s1,GI50,786-0 renal,3.8 µM
same,TGI,786-0 renal,> 23.5 µM
same,GI50,A498 renal,0.493 µM
same,TGI,A498 renal,5.68 µM
same,GI50,A549 NSCLC,5.96 µM
same,TGI,A549 NSCLC,> 23.5 µM
same,GI50,ACHN renal,3.56 µM
same,TGI,ACHN renal,15.3 µM
same,GI50,BT-549 breast,2.47 µM
same,TGI,BT-549 breast,16.6 µM
same,GI50,CAKI-1 renal,5.6 µM
same,TGI,CAKI-1 renal,> 23.5 µM
same,GI50,CCRF-CEM leukemia,2.93 µM
same,TGI,CCRF-CEM leukemia,> 23.5 µM
same,GI50,COLO 205 colon,3.5 µM
same,TGI,COLO 205 colon,10.5 µM
same,GI50,DU-145 prostate,5.26 µM
same,TGI,DU-145 prostate,> 23.5 µM
same,GI50,EKVX NSCLC,8.16 µM
same,TGI,EKVX NSCLC,> 23.5 µM
same,GI50,HCC-2998 colon,4.71 µM
same,TGI,HCC-2998 colon,13.5 µM
same,GI50,HCT-116 colon,0.7 µM
same,TGI,HCT-116 colon,> 23.5 µM
same,GI50,HCT-15 colon,3.99 µM
same,TGI,HCT-15 colon,10.5 µM
same,GI50,HL-60(TB) leukemia,3.53 µM
same,TGI,HL-60(TB) leukemia,> 23.5 µM
same,GI50,HOP-62 NSCLC,4.93 µM
same,TGI,HOP-62 NSCLC,> 23.5 µM
same,GI50,HOP-92 NSCLC,0.695 µM
same,TGI,HOP-92 NSCLC,4.26 µM
same,GI50,HS 578T breast,2.62 µM
same,TGI,HS 578T breast,18.4 µM
same,GI50,HT29 colon,2.72 µM
same,TGI,HT29 colon,> 23.5 µM
same,GI50,IGROV1 ovarian,3.23 µM
same,TGI,IGROV1 ovarian,9.98 µM
same,GI50,K-562 leukemia,1.26 µM
same,TGI,K-562 leukemia,> 23.5 µM
same,GI50,KM12 colon,4.51 µM
same,TGI,KM12 colon,> 23.5 µM
same,GI50,LOX IMVI melanoma,2.52 µM
same,TGI,LOX IMVI melanoma,5.79 µM
same,GI50,M14 melanoma,5.32 µM
same,TGI,M14 melanoma,> 23.5 µM
same,GI50,MALME-3M melanoma,1.79 µM
same,TGI,MALME-3M melanoma,14.2 µM
same,GI50,MCF7 breast,7.19 µM
same,TGI,MCF7 breast,> 23.5 µM
same,GI50,MDA-MB-231 breast,2.48 µM
same,TGI,MDA-MB-231 breast,14.9 µM
same,GI50,MDA-MB-435,4.45 µM
same,TGI,MDA-MB-435,> 23.5 µM
same,GI50,MOLT-4 leukemia,1.3 µM
same,TGI,MOLT-4 leukemia,> 23.5 µM
same,GI50,NCI-H226 lung,5.58 µM
